Numbered stars: 1 amine (or outer) side, 2 acyl side, 3 side chain; on linkers, the order of the positions; unused ones are H or OH. Bridge positions count the residues as written; N and C are the ends. Square brackets hold non-standard residues; d marks the D form. Side chains are listed from the residue outwards. Peptide text beside a SMILES is read from it. * marks the point of attachment. NH(1-deoxy-D-glucityl) = OC[C@@H](O)[C@@H](O)[C@H](O)[C@@H](O)CN*; Trp(1-Me,7-Cl) = Cn1cc(C[C@H](N)C(=O)O)c2cccc(Cl)c21; Ala(2-NH2-4-pyridyl) = Nc1cc(C[C@H](N)C(=O)O)ccn1; dPhe(3-CONH2) = NC(=O)c1cccc(C[C@@H](N)C(=O)O)c1; Piperazinyl(4-CH2COOH) = O=C(O)CN1CCN(*)CC1; Trp(1-Me) = Cn1cc(C[C@H](N)C(=O)O)c2ccccc21; NMe3Pal = CN[C@@H](Cc1cccnc1)C(=O)O; NMeF = CN[C@@H](Cc1ccccc1)C(=O)O; hCit = NC(=O)NCCCC[C@H](N)C(=O)O; 4Pal = N[C@@H](Cc1ccncc1)C(=O)O; Gly(cBu) = N[C@H](C(=O)O)C1CCC1; NMeE = CN[C@@H](CCC(=O)O)C(=O)O; Aad = N[C@@H](CCCC(=O)O)C(=O)O; Cba = N[C@@H](CC1CCC1)C(=O)O; CO = O=C([*:1])[*:2]
Biological target: T1, Recombinant Human EphA2 Fc Protein (Homo sapiens, UniProt P29317)
T1 construct: purchased Elabscience
Experiment: SPR interaction analysis (Biacore T200), kinetics of peptides against EphA2
Format: binding
Details: Recombinant Human EphA2 Fc Protein captured by Human Antibody Capture kit; single-cycle kinetics; 25° C.; HBS-P+ buffer with 1% DMSO
Summary of the method: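 On a Biacore T200 at 25° C, Fc-tagged human EphA2 was captured via anti-human antibody; peptides ran as five serial dilutions in HBS-P+ pH 7.4 with 1% DMSO by single-cycle kinetics. Baseline-subtracted data fitted for ka and kd, from which KD was derived.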

Kd [nM] | SMILES
< 1 | C[C@@H](O)[C@@H]1NC(=O)[C@H](Cc2cn(C)c3ccccc23)NC(=O)[C@H](CCC(=O)NC[C@H](O)[C@@H](O)[C@H](O)[C@H](O)CO)NC(=O)[C@H](Cc2cn(C)c3c(Cl)cccc23)NC(=O)[C@H](Cc2cccnc2)N(C)C(=O)[C@H](CCCC(N)=O)NC(=O)[C@H](C2CCC2)NC(=O)[C@H](CC(N)=O)NC(=O)[C@H](Cc2ccccc2)N(C)C(=O)[C@@H](Cc2cccc(C(N)=O)c2)NC(=O)CSC[C@@H](C(N)=O)NC(=O)[C@H](CCCC(N)=O)NC1=O [PDC_EphA2-00019435, df3CON-MeF-N-Cbg-Hgn-Me3Py-W1Me7Cl-Qglucamine-W1Me-T-Hgn-C-NH2] ({CH2CO}-[dPhe(3-CONH2)][NMeF]N[Gly(cBu)][Aad](NH2)[NMe3Pal][Trp(1-Me,7-Cl)]E(NH(1-deoxy-D-glucityl))[Trp(1-Me)]T[Aad](NH2)C-NH2; thioether N-12)
< 1 | C[C@@H](O)[C@@H]1NC(=O)[C@H](Cc2cn(C)c3ccccc23)NC(=O)[C@H](CCCCNC(=O)N2CCN(CC(=O)O)CC2)NC(=O)[C@H](Cc2cn(C)c3c(Cl)cccc23)NC(=O)[C@H](Cc2cccnc2)N(C)C(=O)[C@H](CCCC(N)=O)NC(=O)[C@H](C2CCC2)NC(=O)[C@H](CC(N)=O)NC(=O)[C@H](Cc2ccccc2)N(C)C(=O)[C@@H](Cc2cccc(C(N)=O)c2)NC(=O)CSC[C@@H](C(N)=O)NC(=O)[C@H](CCCC(N)=O)NC1=O [PDC_EphA2-00019436, df3CON-MeF-N-Cbg-Hgn-Me3Py-W1Me7Cl-KCOpipzaa-W1Me-T-Hgn-C-NH2] ({CH2CO}-[dPhe(3-CONH2)][NMeF]N[Gly(cBu)][Aad](NH2)[NMe3Pal][Trp(1-Me,7-Cl)]K([CO-Piperazinyl(4-CH2COOH)])[Trp(1-Me)]T[Aad](NH2)C-NH2; thioether N-12)
< 1 | C[C@@H](O)[C@@H]1NC(=O)[C@H](Cc2cn(C)c3ccccc23)NC(=O)[C@H](CCC(=O)NC[C@H](O)[C@@H](O)[C@H](O)[C@H](O)CO)NC(=O)[C@H](Cc2cn(C)c3c(Cl)cccc23)NC(=O)[C@H](CCC(=O)O)N(C)C(=O)[C@H](CCCC(N)=O)NC(=O)[C@H](C2CCC2)NC(=O)[C@H](CC(N)=O)NC(=O)[C@H](Cc2cccnc2)N(C)C(=O)[C@@H](Cc2cccc(C(N)=O)c2)NC(=O)CSC[C@@H](C(N)=O)NC(=O)[C@H](CCCC(N)=O)NC1=O [PDC_EphA2-00019439, df3CON-Me3Py-N-Cbg-Hgn-MeE-W1Me7Cl-Qglucamine-W1Me-T-Hgn-C-NH2] ({CH2CO}-[dPhe(3-CONH2)][NMe3Pal]N[Gly(cBu)][Aad](NH2)[NMeE][Trp(1-Me,7-Cl)]E(NH(1-deoxy-D-glucityl))[Trp(1-Me)]T[Aad](NH2)C-NH2; thioether N-12)
< 1 | C[C@@H](O)[C@@H]1NC(=O)[C@H](Cc2cn(C)c3ccccc23)NC(=O)[C@H](CCCCNC(=O)N2CCN(CC(=O)O)CC2)NC(=O)[C@H](Cc2cn(C)c3c(Cl)cccc23)NC(=O)[C@H](CCC(=O)O)N(C)C(=O)[C@H](CCCC(N)=O)NC(=O)[C@H](C2CCC2)NC(=O)[C@H](CC(N)=O)NC(=O)[C@H](Cc2cccnc2)N(C)C(=O)[C@@H](Cc2cccc(C(N)=O)c2)NC(=O)CSC[C@@H](C(N)=O)NC(=O)[C@H](CCCC(N)=O)NC1=O [PDC_EphA2-00019440, df3CON-Me3Py-N-Cbg-Hgn-MeE-W1Me7Cl-KCOpipzaa-W1Me-T-Hgn-C-NH2] ({CH2CO}-[dPhe(3-CONH2)][NMe3Pal]N[Gly(cBu)][Aad](NH2)[NMeE][Trp(1-Me,7-Cl)]K([CO-Piperazinyl(4-CH2COOH)])[Trp(1-Me)]T[Aad](NH2)C-NH2; thioether N-12)
< 1 | C[C@@H](O)[C@@H]1NC(=O)[C@H](Cc2cn(C)c3ccccc23)NC(=O)[C@H](CCCCNC(=O)N2CCN(CC(=O)O)CC2)NC(=O)[C@H](Cc2cn(C)c3c(Cl)cccc23)NC(=O)[C@H](Cc2ccccc2)N(C)C(=O)[C@H](CCCCNC(=O)N2CCN(CC(=O)O)CC2)NC(=O)[C@H](C2CCC2)NC(=O)[C@H](CC(N)=O)NC(=O)[C@H](Cc2cccnc2)N(C)C(=O)[C@@H](Cc2cccc(C(N)=O)c2)NC(=O)CSC[C@@H](C(N)=O)NC(=O)[C@H](CCCC(N)=O)NC1=O [PDC_EphA2-00019441, df3CON-Me3Py-A-Cbg-KCOpipzaa-MeF-W1Me7Cl-KCOpipzaa-W1Me-T-Hgn-C-NH2] ({CH2CO}-[dPhe(3-CONH2)][NMe3Pal]N[Gly(cBu)]K([CO-Piperazinyl(4-CH2COOH)])[NMeF][Trp(1-Me,7-Cl)]K([CO-Piperazinyl(4-CH2COOH)])[Trp(1-Me)]T[Aad](NH2)C-NH2; thioether N-12)
< 1 | C[C@@H](O)[C@@H]1NC(=O)[C@H](Cc2cn(C)c3ccccc23)NC(=O)[C@H](CCC(=O)NC[C@H](O)[C@@H](O)[C@H](O)[C@H](O)CO)NC(=O)[C@H](Cc2cn(C)c3c(Cl)cccc23)NC(=O)[C@H](Cc2ccccc2)N(C)C(=O)[C@H](CCCCNC(=O)N2CCN(CC(=O)O)CC2)NC(=O)[C@H](C2CCC2)NC(=O)[C@H](CC(N)=O)NC(=O)[C@H](Cc2cccnc2)N(C)C(=O)[C@@H](Cc2cccc(C(N)=O)c2)NC(=O)CSC[C@@H](C(N)=O)NC(=O)[C@H](CCCC(N)=O)NC1=O [PDC_EphA2-00019442, df3CON-Me3Py-N-Cbg-KCOpipzaa-MeF-W1Me7Cl-Qglucamine-W1Me-T-Hgn-C-NH2] ({CH2CO}-[dPhe(3-CONH2)][NMe3Pal]N[Gly(cBu)]K([CO-Piperazinyl(4-CH2COOH)])[NMeF][Trp(1-Me,7-Cl)]E(NH(1-deoxy-D-glucityl))[Trp(1-Me)]T[Aad](NH2)C-NH2; thioether N-12)
100 to 400 | CC(C)C[C@@H]1NC(=O)[C@H](Cc2ccncc2)NC(=O)[C@H](Cc2ccccc2)NC(=O)CSC[C@@H](C(=O)NCC(N)=O)NC(=O)[C@H](Cc2cn(C)c3ccccc23)NC(=O)[C@H](Cc2ccccc2)N(C)C(=O)[C@H](Cc2cn(C)c3ccccc23)NC(=O)CNC1=O [PDC_EphA2-00020295-L092, F-4Py-L-G-W1Me-MeF-W1Me-C-G-NH2] ({CH2CO}-F[4Pal]LG[Trp(1-Me)][NMeF][Trp(1-Me)]CG-NH2; thioether N-8)
100 to 400 | CC(C)C[C@@H]1NC(=O)[C@H](Cc2ccnc(N)c2)NC(=O)[C@H](Cc2ccccc2)NC(=O)CSC[C@@H](C(N)=O)NC(=O)[C@H](Cc2cn(C)c3ccccc23)NC(=O)[C@H](Cc2ccccc2)N(C)C(=O)[C@H](Cc2cn(C)c3ccccc23)NC(=O)[C@H](CCCCNC(N)=O)NC1=O [PDC_EphA2-00020708, F-4Py2NH2-L-Hcit-W1Me-MeF-W1Me-C-NH2] ({CH2CO}-F[Ala(2-NH2-4-pyridyl)]L[hCit][Trp(1-Me)][NMeF][Trp(1-Me)]C-NH2; thioether N-8)
100 to 400 | C[C@H]1NC(=O)CSC[C@@H](C(=O)NCC(N)=O)NC(=O)[C@H](Cc2cn(C)c3ccccc23)NC(=O)[C@H](CCCCNC(N)=O)NC(=O)[C@H](Cc2cn(C)c3ccccc23)NC(=O)[C@H](CC(N)=O)NC(=O)[C@H]([C@@H](C)O)NC(=O)[C@H](CC2CCC2)NC(=O)[C@H](CC(N)=O)NC(=O)[C@H](Cc2ccccc2)N(C)C1=O [PDC_EphA2-00021407-L092, da-MeF-N-Cba-T-N-W1Me-Hcit-W1Me-C-G-NH2] ({CH2CO}-[dA][NMeF]N[Cba]TN[Trp(1-Me)][hCit][Trp(1-Me)]CG-NH2; thioether N-10)
